Results reported in the supplement of paper PMC10307832.

Columns and labels:
Assay in all cases: relative viability (nuclei count vs DMSO), 5 days (fraction); higher = more cells survive
YM155 + Alpelisib = compound: COCC[n+]1c2c(n(Cc3cnccn3)c1C)C(=O)c1ccccc1C2=O [YM155] + Cc1nc(NC(=O)N2CCC[C@H]2C(N)=O)sc1-c1ccnc(C(C)(C)C(F)(F)F)c1 [Alpelisib] (partner 2 µM)
In short: (§1)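 Nuclei were stained with Hoechst during a one-step fixation (final 0.05% Triton X-100, 1% formaldehyde, 1 ug/ml Hoechst) carried out 5 days after dosing, then counted on 4× images. The cells, lung cancer lines in 1536-well plates, had been dosed by pin tool the day after seeding with one drug alone or a fixed anchor-drug dose plus five library-drug doses (not always all listed) in √10 steps. Relative viability is the nuclei count in treated wells divided by that in vehicle wells, and each value is the median of duplicate plates.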

YM155 + Decitabine = compound: COCC[n+]1c2c(n(Cc3cnccn3)c1C)C(=O)c1ccccc1C2=O [YM155] + Nc1ncn([C@H]2C[C@H](O)[C@@H](CO)O2)c(=O)n1 [Decitabine] (partner 2 µM)
In short: as §1

Quizartinib + Pemetrexed = compound: CC(C)(C)c1cc(NC(=O)Nc2ccc(-c3cn4c(n3)sc3cc(OCCN5CCOCC5)ccc34)cc2)no1 [Quizartinib] + Nc1nc2[nH]cc(CCc3ccc(C(=O)N[C@@H](CCC(=O)O)C(=O)O)cc3)c2c(=O)[nH]1 [Pemetrexed] (partner 0.2 µM)
In short: as §1

[1] = compound: CC(C)(C)c1cc(NC(=O)Nc2ccc(-c3cn4c(n3)sc3cc(OCCN5CCOCC5)ccc34)cc2)no1 [Quizartinib] + CC(=O)c1c(C)c2cnc(Nc3ccc(N4CCNCC4)cn3)nc2n(C2CCCC2)c1=O [Palbociclib] (partner 0.5 µM)
In short: as §1

Row | Cell Line | relative viability (YM155 + Alpelisib; first compound 0.002 µM) | relative viability (YM155 + Alpelisib; first compound 0.006325 µM) | relative viability (YM155 + Alpelisib; first compound 0.02 µM) | relative viability (YM155 + Alpelisib; first compound 0.06325 µM) | relative viability (YM155 + Decitabine; first compound 0.002 µM) | relative viability (YM155 + Decitabine; first compound 0.006325 µM) | relative viability (YM155 + Decitabine; first compound 0.02 µM) | relative viability (YM155 + Decitabine; first compound 0.06325 µM) | relative viability (Quizartinib + Pemetrexed; first compound 0.001 µM) | relative viability (Quizartinib + Pemetrexed; first compound 0.003162 µM) | relative viability (Quizartinib + Pemetrexed; first compound 0.01 µM) | relative viability (Quizartinib + Pemetrexed; first compound 0.03162 µM) | relative viability (Quizartinib + Pemetrexed; first compound 0.1 µM) | relative viability ([1]; first compound 0.001 µM) | relative viability ([1]; first compound 0.003162 µM) | relative viability ([1]; first compound 0.01 µM) | relative viability ([1]; first compound 0.03162 µM) | relative viability ([1]; first compound 0.1 µM)
1 | 201T | 1.01 | 1.03 | 1.05 | 1.02 | 0.825 | 0.838 | 0.851 | 0.88 | 0.272 | 0.311 | 0.306 | 0.302 | 0.365 | 0.322 | 0.371 | 0.361 | 0.401 | 0.401
2 | A549 | 0.673 | 0.759 | 0.838 | 0.35 | 0.413 | 0.215 | 0.29 | 0.24 |  |  |  |  |  |  |  |  |  | 
3 | A-427 | 1.08 | 1.06 | 1.09 | 1.12 | 0.525 | 0.567 | 0.571 | 0.466 | 0.781 | 0.96 | 0.84 | 0.884 | 0.954 | 0.425 | 0.48 | 0.523 | 0.485 | 0.505
4 | ABC-1 | 0.85 | 0.368 | 0.264 | 0.243 |  | 0.84 | 0.383 | 0.308 |  |  |  |  |  |  | 0.71 | 0.842 | 0.769 | 0.823
5 | BEN | 1.1 | 1.06 | 0.965 | 1.13 | 0.684 | 0.712 | 0.718 | 0.741 | 0.739 | 0.959 | 0.681 | 0.659 | 0.78 | 0.388 | 0.427 | 0.544 | 0.472 | 0.503
6 | CAL-12T | 1.02 | 1.29 | 0.921 | 0.25 |  |  |  |  | 1.01 | 1.01 | 1.36 | 0.998 | 1.49 | 0.362 | 0.404 | 0.607 | 0.348 | 0.0629
7 | COR-L23 | 0.646 | 0.671 | 0.449 | 0.154 | 0.439 | 0.315 | 0.317 | 0.169 | 0.193 | 0.189 | 0.208 | 0.194 | 0.211 | 0.236 | 0.269 | 0.34 | 0.244 | 0.244
8 | COR-L 105 | 1.1 | 1.3 | 0.945 | 0.588 | 0.552 | 0.671 | 0.519 | 0.442 | 0.985 | 1.18 | 1.29 |  | 1.3 | 0.395 | 0.397 | 0.396 |  | 0.418
9 | Calu-6 | 0.937 | 0.578 | 0.309 | 0.252 |  |  |  |  |  |  |  |  |  |  |  |  |  | 
10 | ChaGo-K-1 |  |  |  |  | 0.473 | 0.563 | 0.515 | 0.545 |  | 0.247 | 0.264 | 0.26 | 0.264 |  | 0.922 | 0.918 | 0.949 | 0.904
11 | EBC-1 | 0.786 | 0.862 | 0.95 | 0.9 |  |  |  |  |  |  |  |  |  |  |  |  |  | 
